What was measured:
Aurora B = target: T1, Aurora B (Homo sapiens, UniProt Q96GD4); assay: Aurora B cell mechanistic assay (HT-29), phospho-Histone H3 (Ser10) ELISA; format: cell-based; details: HT-29 cell line; inhibition of phospho-Histone H3 (Ser10); at least duplicate experiments (italicized if single experiment); read-out: Aurora B mech IC50
T1 construct: HT-29 cells grown in complete growth media
Outline: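 HT-29 cells treated 1 h at 37 °C with serially diluted compound, then 100 nM Calyculin A added for 30 min. Lysates assayed by phospho-Histone H3 (Ser10) ELISA at 450 nm; normalized to DMSO (100%) and a reference Aurora B inhibitor (full inhibition); IC50 by four-parameter fit.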

Karpas-299 cells = assay: Karpas-299 cell proliferation assay (CellTiter-Glo); format: cell-based; details: Homo sapiens, 72 h; Karpas-299 cell line (NPM-ALK); 3 days incubation; at least duplicate experiments; read-out: Prolif. IC50

T1 sequence (Q96GD4 whole entry): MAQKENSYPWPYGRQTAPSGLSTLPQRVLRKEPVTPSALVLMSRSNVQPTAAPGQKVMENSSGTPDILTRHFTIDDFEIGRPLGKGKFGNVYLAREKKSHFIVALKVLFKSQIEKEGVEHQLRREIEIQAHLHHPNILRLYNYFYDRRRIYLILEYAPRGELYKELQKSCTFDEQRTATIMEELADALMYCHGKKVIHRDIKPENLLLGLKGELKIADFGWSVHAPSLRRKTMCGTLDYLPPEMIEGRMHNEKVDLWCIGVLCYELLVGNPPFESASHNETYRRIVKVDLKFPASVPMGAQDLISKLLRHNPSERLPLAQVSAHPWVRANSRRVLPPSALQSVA

| Structure (SMILES) | IC50 (Aurora B) | IC50 (Karpas-299 cells) |
| --- | --- | --- |
| COc1ccc(F)c(Cl)c1[C@@H](C)c1c[nH]c2ncc(-c3cn([C@H]4CC[C@H](C(=O)N(C)C)CC4)nc3C)cc12 [Example 23, trans-4-(4-{3-[(1S)-1-(2-chloro-3-fluoro-6-methoxyphenyl)ethyl]-1H-pyrrolo[2,3-b]pyridin-5-yl}-3-methyl-1H-pyrazol-1-yl)-N,N-dimethylcyclohexanecarboxamide] | 50 to 200 nM | ≤ 50 nM |
| COc1ccc(F)c(Cl)c1[C@@H](C)c1c[nH]c2ncc(-c3cn([C@H]4CC[C@H](O)CC4)nc3C)cc12 [Example 28, trans-4-(4-{3-[(1S)-1-(2-Chloro-3-fluoro-6-methoxyphenyl)ethyl]-1H-pyrrolo[2,3-b]pyridin-5-yl}-3-methyl-1H-pyrazol-1-yl)cyclohexanol] | 50 to 200 nM | ≤ 50 nM |
| CNC(=O)[C@H]1CC[C@H](n2nc(C)c(-c3cnc4[nH]cc([C@H](C)c5c(OC)ccc(F)c5Cl)c4c3)c2C)CC1 [Example 24, trans-4-(4-{3-[(1S)-1-(2-Chloro-3-fluoro-6-methoxyphenyl)ethyl]-1H-pyrrolo[2,3-b]pyridin-5-yl}-3,5-dimethyl-1H-pyrazol-1-yl)-N-methylcyclohexanecarboxamide] | > 1000 nM | ≤ 50 nM |
